Measurements taken from patent US6737383B1, “Herbicidal oxadiazolidines” (priority 1999, dated 2004).

Key:
cocklebur = assay: Test B pre/postemergence cocklebur; type: in vivo, Xanthium strumarium
Procedure, shortened: (§1)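 Herbicidal effect was estimated by eye on a ten-point control scale after plants spent twelve to sixteen days in a greenhouse following soil or foliar treatment. Foliar sprays targeted plants at one to four leaves; all doses were formulated in a non-phytotoxic solvent with surfactant.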

soybean = assay: Test B pre/postemergence soybean; type: in vivo, Glycine max
Procedure, shortened: as §1

giant foxtail = assay: Test B pre/postemergence giant foxtail; type: in vivo, Setaria faberii
Procedure, shortened: as §1

corn = assay: Test B pre/postemergence corn; type: in vivo, Zea mays
Procedure, shortened: as §1

smallflower flatsedge = assay: Test B flood test smallflower flatsedge; type: in vivo, Cyperus difformis
Procedure, shortened: (§2)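 Flood test on plants grown to the 2-leaf stage; treated plants kept in greenhouse twelve to sixteen days, then visually rated against controls on a 0 (no effect) to 10 (complete control) scale.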

rape = assay: Test B pre/postemergence rape; type: in vivo, Brassica napus
Procedure, shortened: as §1

velvetleaf = assay: Test B pre/postemergence velvetleaf; type: in vivo, Abutilon theophrasti
Procedure, shortened: as §1

purple nutsedge = assay: Test B pre/postemergence purple nutsedge; type: in vivo, Cyperus rotundus
Procedure, shortened: as §1

morningglory = assay: Test B pre/postemergence morningglory; type: in vivo, Ipomoea hederacea
Procedure, shortened: as §1

wild oat = assay: Test B pre/postemergence wild oat; type: in vivo, Avena fatua
Procedure, shortened: as §1

pigweed = assay: Test B pre/postemergence pigweed; type: in vivo, Amaranthus retroflexus
Procedure, shortened: as §1

rice = assay: Test B flood test rice; type: in vivo, Oryza sativa
Procedure, shortened: as §2

wheat = assay: Test B pre/postemergence wheat; type: in vivo, Triticum aestivum
Procedure, shortened: as §1

duck salad = assay: Test B flood test duck salad; type: in vivo, Heteranthera limosa
Procedure, shortened: as §2

crabgrass = assay: Test B pre/postemergence crabgrass; type: in vivo, Digitaria sanguinalis
Procedure, shortened: as §1

[1] = Postemergence, Rate 250 g/ha, scale 0 to 10
[2] = Postemergence, Rate 500 g/ha, scale of 0 to 10 where 0 is no effect and 10 is complete control
[3] = Preemergence, Rate 62 g/ha, scale of 0 to 10 where 0 is no effect and 10 is complete control
[4] = Preemergence, Rate 125 g/ha, scale of 0 to 10 where 0 is no effect and 10 is complete control
[5] = Preemergence, Rate 250 g/ha, scale 0 to 10, 0 is no effect, 10 is complete control
[6] = Preemergence, Rate 500 g/ha, scale 0 to 10, 0 is no effect, 10 is complete control
[7] = Rate 62 g/ha, Postemergence, scale 0 to 10 (0 no effect, 10 complete control)
[8] = Rate 125 g/ha, Postemergence, scale 0 to 10, 0 is no effect, 10 is complete control
[9] = Rate 62 g/ha, flood test species, Pre-emergence, visual evaluation after twelve to sixteen days
[10] = Rate 125 g/ha, under heading Pre-emergence, flood test species, visual evaluation after twelve to sixteen days
[11] = Rate 250 g/ha, Pre-emergence (flood test species), scale 0 to 10, 0 is no effect, 10 is complete control
[12] = Rate 500 g/ha, Pre-emergence, flood test species, scale 0 to 10 (0 no effect, 10 complete control)

CC(C)N(C(=O)n1oc(=O)n(CCC#N)c1=O)c1ccc(Cl)cc1 [Compound 444]
0: Cocklebur plant response rating (cocklebur; [1]) | Cocklebur plant response rating (cocklebur; [2]) | Plant response rating, Cocklebur (cocklebur; [3]) | Plant response rating, Cocklebur (cocklebur; [4]) | Cocklebur plant response rating (cocklebur; [5]) | Cocklebur plant response rating (cocklebur; [6]) | Cocklebur plant response rating (cocklebur; [7]) | Cocklebur plant response rating (cocklebur; [8]) | Plant response rating, Soybean (soybean; [3]) | Plant response rating, Soybean (soybean; [4]) | Corn plant response rating (corn; [1]) | Corn plant response rating (corn; [2]) | Plant response rating, Corn (corn; [3]) | Plant response rating, Corn (corn; [4]) | Corn plant response rating (corn; [5]) | Corn plant response rating (corn; [6]) | Corn plant response rating (corn; [7]) | Corn plant response rating (corn; [8]) | Plant response rating, S. Flatsedge (0 to 10 scale, 0 is no effect, 10 is complete control) (smallflower flatsedge; [9]) | S. Flatsedge plant response rating (0 to 10 scale, 0 is no effect, 10 is complete control) (smallflower flatsedge; [10]) | S. Flatsedge plant response rating (smallflower flatsedge; [11]) | S. Flatsedge plant response rating (smallflower flatsedge; [12]) | Rape plant response rating (rape; [1]) | Rape plant response rating (rape; [2]) | Plant response rating, Rape (rape; [3]) | Plant response rating, Rape (rape; [4]) | Rape plant response rating (rape; [5]) | Rape plant response rating (rape; [7]) | Rape plant response rating (rape; [8]) | Velvetleaf plant response rating (velvetleaf; [1]) | Plant response rating, Velvetleaf (velvetleaf; [3]) | Plant response rating, Velvetleaf (velvetleaf; [4]) | Velvetleaf plant response rating (velvetleaf; [5]) | Velvetleaf plant response rating (velvetleaf; [7]) | Velvetleaf plant response rating (velvetleaf; [8]) | Nutsedge plant response rating (purple nutsedge; [1]) | Nutsedge plant response rating (purple nutsedge; [2]) | Plant response rating, Nutsedge (purple nutsedge; [3]) | Plant response rating, Nutsedge (purple nutsedge; [4]) | Nutsedge plant response rating (purple nutsedge; [5]) | Nutsedge plant response rating (purple nutsedge; [6]) | Nutsedge plant response rating (purple nutsedge; [7]) | Nutsedge plant response rating (purple nutsedge; [8]) | Plant response rating, Morningglory (morningglory; [3]) | Plant response rating, Morningglory (morningglory; [4]) | Morningglory plant response rating (morningglory; [5]) | Morningglory plant response rating (morningglory; [6]) | Morningglory plant response rating (morningglory; [7]) | Morningglory plant response rating (morningglory; [8]) | Wild oats plant response rating (wild oat; [1]) | Plant response rating, Wild oats (wild oat; [3]) | Plant response rating, Wild oats (wild oat; [4]) | Wild oats plant response rating (wild oat; [5]) | Wild oats plant response rating (wild oat; [7]) | Wild oats plant response rating (wild oat; [8]) | Redroot pigweed plant response rating (pigweed; [7]) | Plant response rating, Rice (0 to 10 scale, 0 is no effect, 10 is complete control) (rice; [9]) | Rice plant response rating (0 to 10 scale, 0 is no effect, 10 is complete control) (rice; [10]) | Rice plant response rating (rice; [11]) | Rice plant response rating (rice; [12]) | Wheat plant response rating (wheat; [1]) | Wheat plant response rating (wheat; [2]) | Plant response rating, Wheat (wheat; [3]) | Plant response rating, Wheat (wheat; [4]) | Wheat plant response rating (wheat; [5]) | Wheat plant response rating (wheat; [6]) | Wheat plant response rating (wheat; [7]) | Wheat plant response rating (wheat; [8]) | Plant response rating, Ducksalad (0 to 10 scale, 0 is no effect, 10 is complete control) (duck salad; [9]) | Ducksalad plant response rating (0 to 10 scale, 0 is no effect, 10 is complete control) (duck salad; [10]) | Ducksalad plant response rating (duck salad; [11]) | Ducksalad plant response rating (duck salad; [12])
1: Soybean plant response rating (soybean; [7]) | Soybean plant response rating (soybean; [8]) | Morningglory plant response rating (morningglory; [1])
5: Plant response rating, Crabgrass (crabgrass; [4])
4: Giant foxtail plant response rating (giant foxtail; [7]) | Velvetleaf plant response rating (velvetleaf; [6]) | Wild oats plant response rating (wild oat; [6]) | Plant response rating, Crabgrass (crabgrass; [3])
9: Giant foxtail plant response rating (giant foxtail; [2]) | Plant response rating, Giant foxtail (giant foxtail; [3]) | Plant response rating, Giant foxtail (giant foxtail; [4]) | Crabgrass plant response rating (crabgrass; [1]) | Crabgrass plant response rating (crabgrass; [2]) | Crabgrass plant response rating (crabgrass; [5])
3: Soybean plant response rating (soybean; [6]) | Velvetleaf plant response rating (velvetleaf; [2]) | Morningglory plant response rating (morningglory; [2])
7: Giant foxtail plant response rating (giant foxtail; [8])
2: Soybean plant response rating (soybean; [1]) | Soybean plant response rating (soybean; [2]) | Soybean plant response rating (soybean; [5]) | Rape plant response rating (rape; [6]) | Wild oats plant response rating (wild oat; [2]) | Redroot pigweed plant response rating (pigweed; [2]) | Redroot pigweed plant response rating (pigweed; [8]) | Crabgrass plant response rating (crabgrass; [7]) | Crabgrass plant response rating (crabgrass; [8])
10: Giant foxtail plant response rating (giant foxtail; [5]) | Giant foxtail plant response rating (giant foxtail; [6]) | Plant response rating, Redroot pigweed (pigweed; [3]) | Plant response rating, Redroot pigweed (pigweed; [4]) | Redroot pigweed plant response rating (pigweed; [5]) | Redroot pigweed plant response rating (pigweed; [6]) | Crabgrass plant response rating (crabgrass; [6])
8: Giant foxtail plant response rating (giant foxtail; [1])
